Consider three compounds from patent publication US20250229073A1, “TRANSIENT DISRUPTION OF THE NEUROVASCULAR BARRIER OF A HUMAN AND USES THEREOF FOR TREATING AMYOTROPHIC LATERAL SCLEROSIS” (SORBONNE UNIVERSITE, priority 2022, published 2025).

Data set [1] in a line: Blood spinal cord barrier opening assessed by Evan's Blue Dye spinal cord uptake quantification. It is filed as in vivo. The following applies: healthy WT mice. The procedure: (§1) A 1-cm, 1 MHz planar ultrasound transducer was coupled to the skin with ultrasound coupling gel and positioned to target the lumbar spinal cord. The peak acoustic pressure was 0.5 MPa for tolerance tests in WT mice and 0.35 MPa was sufficient for blood spinal cord disruption assessment and for ALS mouse procedures (FIG. 1). At the beginning of the sonication, 0.2 mL of microbubbles (SonoVue, Bracco®) were injected intravenously. Twenty-four mice were used to test the sonication protocol
Blood spinal cord opening was assessed on 27 WT mice with Evan's Blue Dye (EBD) spinal cord uptake quantification.
(§2) The spinal cord was removed and frozen in liquid nitrogen. • For immunohistological analysis and motor neuron count (fixed tissues), the mice were perfused transcardially with 20 mL PBS then 50 mL of 4% paraformaldehyde in phosphate buffer. The spinal cord was extracted, and placed for 4 hours in 4% paraformaldehyde for post-fixation and then cryopreserved in a 30% sucrose solution in PBS before freezing. Thirty-micron thick transverse sections were cut on a cryostat at −18° C. Floating segments of spinal cord were stored in phosphate buffered saline solution at 4° C. Motor neuron counts were determined on serial sections across the lumbar spinal cords (15-20 sections per animal) after Nissl staining. • For immunostaining, sections were incubated overnight at room temperature with the following antibodies: rabbit anti-Iba1 (1:500 Wako Chemicals), anti-GFAP (1:500 Dako anti GFAP), rat anti-CD4 (1:100, AbD Serotec), rat anti CD3 (1:100, AbD Serotec), rat anti CD8 (1:100, AbD Serotec, rabbit polyclonal to human SOD1 (1:10000, Abcam). Species specific Alexa Fluor 488, 594, 647 (1:1000 Life Technologies) were used as secondary antibodies
GraphPad (GraphPad Software, San Diego, CA) was used for all statistical analysis. Statistical significance was set at p≤0.05. […] A Log-rank P value was calculated with Mantel-Cox test to compare the survival curves and corrected with the Bonferroni coefficient.

In data set [2] the test system is patients suffering from ALS. The following applies: clinical, literature; cited from earlier work.
The test system of data set [3] is SOD1^G93A ALS mice. Nature of the data set: Histological analysis of spinal cord of the ALS treated mice (immunostaining, motor neuron counts). It is filed as in vivo.
Excerpt: The onset of disease was defined as the time point at which the mice were at peak weight before they started to lose weight due to progressive motor neuron denervation and muscle wasting, as shown in FIG. 1. The symptomatic stage was defined as the age at which the mice had lost 10% of their maximal weight and is accompanied by gait alterations and failure of hindlimb splaying reflex. This disease stage was followed by progressive paralysis. […] In each group some randomly assigned mice were sacrificed at the symptomatic stage (defined as 10% of weight loss) or at disease end stage for immunohistological analysis.
as §2
GraphPad (GraphPad Software, San Diego, CA) was used for all statistical analysis. Statistical significance was set at p≤0.05. […] Duration of early and late phases between the groups were compared by ANOVA after a normality test and followed by post-hoc Tukey-Kramer Multiple comparison test or Dunnett's multiple comparison test. Motor neuron count, immune activation and SOD1 expression were compared in different group using Kruskall Wallis test. Data are represented as Mean+SEM. Kruskal Wallis non parametric test was used to compare the total number of lymphocytes (CD4 and CD8). Survival analysis (onset disease, end-stage) was performed with Kaplan-Meier statistics. A Log-rank P value was calculated with Mantel-Cox test to compare the survival curves and corrected with the Bonferroni coefficient.

Data set [4] can be described thus: IGF1 spinal cord uptake quantification (Quantikine ELISA human IGF-1). It is filed as in vivo. The note with it: healthy WT mice.
Description: A 1-cm, 1 MHz planar ultrasound transducer was coupled to the skin with ultrasound coupling gel and positioned to target the lumbar spinal cord. […] At the beginning of the sonication, 0.2 mL of microbubbles (SonoVue, Bracco®) were injected intravenously. Twenty-four mice were used to test the sonication protocol
Fourteen sonicated lumbar spinal cord were compared to 15 non-sonicated lumbar spinal cord
GraphPad (GraphPad Software, San Diego, CA) was used for all statistical analysis. Statistical significance was set at p≤0.05. […] Data are represented as Mean+SEM.
In data set [5] the test system is SOD1^G93A ALS mice. Nature of the data set: Clinical and survival evaluation of treated ALS mice. The format is in vivo. The procedure: Eighty Mutant SOD1^G93A female mice modeling ALS [B6.Cg-Tg (SOD1^G93A) 1Gur/J] were purchased from Jackson Laboratories (stock #004435) and 120 wild type control mice (WT), with a C57B16/J genetic background. The animal protocol complied with the European laws for the protection of experimental animals and was approved by the local ethics committee. Mice were maintained on a 12:12 h dark: light cycle with food and water available ad libitum. Moisturized food pellets were supplied when mice became weak. ALS mice were hemizygous for a 12 kb genomic fragment encoding the human wild-type or mutated SOD1 gene under its endogenous promoter. Mice carrying the human SOD1 transgene were identified by PCR screening of tail DNA using mouse SOD1 forward primer (5′-[…]-3′), human SOD1 forward primer (5′-[…]-3′) and mouse and human SOD1 reverse primer (5′-[…]-3′) resulting in a ˜800 bp mouse and a ˜600 bp human SOD1 PCR product.
To represent as close as possible the clinical disease progression in humans, treatment started at the beginning of the disease and not at a presymptomatic stage. SOD1^G93A mice are a particularly severe model in terms of symptoms. The mice quickly become too weak to tolerate general anesthesia, which led us to stop treatments at 135 days of age, or 1 month of treatment (5 sessions). This corresponds approximately to the end of the early phase of the disease.
as §1
Controls and US mice received a subcutaneous injection of 0.9% saline. […]
Muscle strength of mice was assessed by three different motor tests: grip testing, inverted screen testing and wire suspension testing. […]

With `Cc1cc(-c2ccc(/N=N/c3ccc4c(S(=O)(=O)[O-])cc(S(=O)(=O)[O-])c(N)c4c3O)c(C)c2)ccc1/N=N/c1ccc2c(S(=O)(=O)[O-])cc(S(=O)(=O)[O-])c(N)c2c1O.[Na+].[Na+].[Na+].[Na+]` [EBD, Evan's Blue Dye], in data set [1], the “EBD concentration, sonicated compared to non-sonicated segments” value was found to be 3.4 times. For the same compound, the “EBD concentration in spinal cord, non-sonicated segments” value in data set [1] (non-sonicated segments) was 41 µg/g. Besides, the “EBD concentration in spinal cord, sonicated segments” value in data set [1] (sonicated segments of spinal cord) worked out at 142 µg/g.

In the case of `Nc1nc2ccc(OC(F)(F)F)cc2s1` [riluzole, 2-amino-6-trifluoromethoxybenzothiazole], the “side effects in ALS patients” value in data set [2] is “asthenia, spasticity and an increase in the transaminase levels”.

With “IGF1: rhIGF1 (Mecasermine, IPSEN Pharma), Insulin-like Growth Factor 1, subcutaneous injection of 500 μg/kg”, the “immunofluorescent area occupied by SOD1, end stage mice” value in the data set on SOD1^G93A ALS mice [3] (disease end stage) is given as “lowest percentage of SOD1”. For the same compound, the “number of lymphocytes (CD3+) per section” value with SOD1^G93A ALS mice [3] (end stage, control 11±3.6) came to 28.5±3.8; in the data set with SOD1^G93A ALS mice [3] (symptomatic stage, control 13±3.5), 20±5.3. Also, the “astrocyte reactivity, immunoreactive area for GFAP” value in the data set on SOD1^G93A ALS mice [3] (stage not given, control 12±2.6, unit from FIG. 4 legend) was determined as 5.9±2.5%. Moreover, the “immunofluorescent area occupied by SOD1, symptomatic mice” value in the data set on SOD1^G93A ALS mice [3] (symptomatic stage (10% weight loss)) is reported as “lowest percentage of SOD1”. Besides, in the data set with SOD1^G93A ALS mice [3] (symptomatic stage, control 10.3±0.6%), the “microglial reactivity, Iba1 immunoreactivity” value is recorded as 5±2.1%. Moreover, the “IGF1 concentration, sonicated compared to non-sonicated” value in data set [4] was 1100 times. Besides, in the data set on SOD1^G93A ALS mice [5] (SOD1^G93A mice, 5 weekly sessions from P106, control 166.5 days), the “ALS mouse survival (median age)” value is 166 days. In the data set with SOD1^G93A ALS mice [5] (peak weight to 10% weight loss, control 37.4±3.4, b130 gives the gain in days), the “early disease phase duration” value is reported as 36.8±2.8. In addition, the “effect of IGF1 administration on survival or functional tests” value in the data set with SOD1^G93A ALS mice [5] (whether or not associated with ultrasound, 0.5 mg/kg once a week, five injections) is recorded as “no additional effect”.
